# In ChEMBL document CHEMBL5131389, “PSMA-targeted small-molecule docetaxel conjugate: Synthesis and preclinical evaluation” (Eur J Med Chem, 2022):
# Several values for one entry are separate records, joined by “and”; a condition that tells them apart may be missing. Equal entries are not always repeated. Activity calls are given as the source filed them. The rule behind the calls is not given here.
# Legend:
# [1] = Selectivity ratio of CC50 for cytotoxicity against human PC-3 cells to CC50 for cytotoxicity against human 22Rv1 cells
# PC-3 [2] = experiment: Cytotoxicity against human PC-3 cells assessed as reduction in cell viability measured after 72 hrs by MTT assay; format: functional
# CWR22R [3] = experiment: Cytotoxicity against human 22Rv1 cells assessed as reduction in cell viability measured after 72 hrs by MTT assay; format: functional
# [4] = Chronic toxicity in rat assessed as reduction in getting up frequency at 15.16 mg/kg, iv administered as pluronic F127 formulation at 4 intervals for 21 days and observed 3 weeks post last injection; format: organism-based; settings: in vivo, 2544 h, time 106 day
# [5] = Chronic toxicity in rat assessed as increase in relative mass of liver administered intravenously as pluronic F127 formulation at 4 intervals for 21 days and observed 3 weeks post last injection relative to control; format: tissue-based; settings: in vivo, iv, 2544 h, time 106 day
# [6] = Chronic toxicity in rat assessed as increase in creatinine concentration at […], iv administered as pluronic F127 formulation at 4 intervals for 21 days and observed 3 weeks post last injection relative to control; format: organism-based; settings: in vivo, 2544 h, time 106 day
# [7] = Chronic toxicity in rat assessed as increase in relative mass of pancreas administered intravenously as pluronic F127 formulation at 4 intervals for 21 days and observed 3 weeks post last injection relative to control; format: tissue-based; settings: in vivo, iv, 2544 h, time 106 day
# [8] = Chronic toxicity in rat assessed as change in volume of excreted urine administered intravenously as pluronic F127 formulation at 4 intervals for 21 days and observed 3 weeks post last injection relative to control; settings: in vivo, iv, 2544 h, time 106 day
# [9] = Chronic toxicity in rat assessed as increase in relative kidney weight administered intravenously as pluronic F127 formulation at 4 intervals for 21 days and observed 3 weeks post last injection; format: tissue-based; settings: in vivo, iv, 2544 h, time 106 day
# PC-3 [10] = experiment: Effect on cell stiffness in human PC-3 cells assessed as increase in young's modulus at 1 nM measured after 1 hr by topography based scanning ion-conductance microscopic analysis; format: functional
# DU-145 [11] = experiment: Antitumor activity against human DU-145 cells xenografted in BALB/c nude mouse assessed as tumor growth inhibition at 24.8 mg/kg, ip measured upto 30 days; format: functional; settings: DU-145, 720 h, time <= 30 day, read-out: TGI
# [12] = Chronic toxicity in rat assessed as increase in relative mass of adrenal gland administered intravenously as pluronic F127 formulation at 4 intervals for 21 days and observed 3 weeks post last injection relative to control; format: tissue-based; settings: in vivo, iv, 2544 h, time 106 day
# CWR22R [13] = experiment: Effect on cell stiffness in human 22Rv1 cells assessed as increase in young's modulus at 1 nM measured after 1 hr by topography based scanning ion-conductance microscopic analysis; format: functional
# [14] = Chronic toxicity in rat assessed as neurological disorder administered intravenously as pluronic F127 formulation at 4 intervals for 21 days and observed 3 weeks post last injection; settings: in vivo, iv, 2544 h, time 106 day
# [15] = Acute toxicity in iv dosed ICR mouse assessed as lethal dose; format: organism-based; settings: in vivo
# [16] = Chronic toxicity in rat assessed as change in erythrocytes in blood administered intravenously as pluronic F127 formulation at 4 intervals for 21 days and observed 3 weeks post last injection relative to control; format: cell-based; settings: iv, 2544 h, time 106 day
# [17] = Chronic toxicity in rat assessed as reduction in grooming frequency at 15.16 mg/kg, iv administered as pluronic F127 formulation at 4 intervals for 21 days and observed 3 weeks post last injection; format: organism-based; settings: in vivo, 2544 h, time 106 day
# [18] = Toxicity in Balb/c nude mouse xenografted with human 22Rv1 cells assessed as animal death at 10 mg/kg, ip measured upto 30 days; format: organism-based, CWR22R; settings: in vivo, 720 h, time < 30 day
# [19] = Chronic toxicity in rat assessed as hair loss administered intravenously as pluronic F127 formulation at 4 intervals for 21 days and observed 3 weeks post last injection; settings: in vivo, iv, 2544 h, time 106 day
# [20] = Chronic toxicity in Soviet Chinchilla rabbit assessed as animal death administered intravenously as pluronic F127 formulation at 4 intervals for 21 days and observed one week post first injection; set-up: species or system Oryctolagus cuniculus; settings: in vivo, iv, 168 h, time 7 day
# DU-145 [21] = experiment: Antitumor activity against human DU-145 cells xenografted in BALB/c nude mouse assessed as tumor growth inhibition at 12.4 mg/kg, ip measured upto 30 days; format: functional; settings: DU-145, 720 h, time <= 30 day, read-out: TGI
# PC-3 [22] = experiment: Induction of ROS generation in human PC-3 cells at 800 mV holding potential measured after 1 hr by patch clamp amplifier based optical inverted microscopic analysis; format: functional, cell-based
# [23] = Chronic toxicity in rat assessed as increase in relative lung mass administered intravenously as pluronic F127 formulation for 4 intervals of 21 days and observed 3 weeks post last injection relative to control; settings: in vivo, iv, 2544 h, time 106 day
# [24] = Chronic toxicity in rat assessed as change in alkaline phosphatase level at […], iv administered as pluronic F127 formulation at 4 intervals for 21 days and observed 3 weeks post last injection relative to control; format: organism-based; settings: in vivo, 2544 h, time 106 day
# [25] = Chronic toxicity in rat assessed as decrease in relative mass of testes administered intravenously as pluronic F127 formulation at 4 intervals for 21 days and observed 3 weeks post last injection relative to control; settings: in vivo, iv, 2544 h, time 106 day
# CWR22R [26] = experiment: Antitumor activity against human 22Rv1 cells xenografted in Balb/c nude mouse assessed as tumor growth inhibition at 10 mg/kg, ip administered daily for 5 days and measured at day 34 relative to control; format: functional; set-up: scale not given: the % may be the effect or the level left; settings: time 34 day
# [27] = Aqueous solubility of compound; format: physicochemical
# [28] = Chronic toxicity in rat assessed as increase in relative brain mass administered intravenously as pluronic F127 formulation at 4 intervals for 21 days and observed 3 weeks post last injection relative to control; format: tissue-based; settings: in vivo, iv, 2544 h, time 106 day
# DU-145 [29] = experiment: Antitumor activity against human DU-145 cells xenografted in BALB/c nude mouse assessed as reduction in tumor growth index at 24.8 mg/kg, ip measured upto 30 days (reference value: 799 +/- 121.8 %); format: functional; set-up: scale not given: the % may be the effect or the level left; settings: time <= 30 day
# DU-145 [30] = experiment: Antitumor activity against human DU-145 cells xenografted in BALB/c nude mouse assessed as reduction in tumor growth index at 12.4 mg/kg, ip measured upto 30 days (reference value: 799 +/- 121.8 %); format: functional; set-up: scale not given: the % may be the effect or the level left; settings: time <= 30 day
# [31] = Chronic toxicity in rat assessed as increase in relative mass of stomach administered intravenously as pluronic F127 formulation at 4 intervals for 21 days and observed 3 weeks post last injection relative to control; format: tissue-based; settings: in vivo, iv, 2544 h, time 106 day
# [32] = Toxicity in BALB/c nude mouse xenografted with human DU-145 cells assessed as animal death at 12.4 to 24.8 mg/kg, ip measured on day 8; format: organism-based; settings: in vivo, dose 12.4-24.8 mg/kg, time 8 day, read-out: Activity
# [33] = Chronic toxicity in rat assessed as increase in relative spleen mass administered intravenously as pluronic F127 formulation at 4 intervals for 21 days and observed 3 weeks post last injection relative to control; format: tissue-based; settings: in vivo, iv, 2544 h, time 106 day
# [34] = Chronic toxicity in rat assessed as change in relative heart mass administered intravenously as pluronic F127 formulation at 4 intervals for 21 days and observed 3 weeks post last injection; format: tissue-based; settings: in vivo, iv, 2544 h, time 106 day
# [35] = molecular target: Glutamate carboxypeptidase 2 (Homo sapiens, UniProt Q04609); experiment: Inhibition of GCPII (unknown origin)
# Glutamate carboxypeptidase 2, sequence (Q04609 whole entry): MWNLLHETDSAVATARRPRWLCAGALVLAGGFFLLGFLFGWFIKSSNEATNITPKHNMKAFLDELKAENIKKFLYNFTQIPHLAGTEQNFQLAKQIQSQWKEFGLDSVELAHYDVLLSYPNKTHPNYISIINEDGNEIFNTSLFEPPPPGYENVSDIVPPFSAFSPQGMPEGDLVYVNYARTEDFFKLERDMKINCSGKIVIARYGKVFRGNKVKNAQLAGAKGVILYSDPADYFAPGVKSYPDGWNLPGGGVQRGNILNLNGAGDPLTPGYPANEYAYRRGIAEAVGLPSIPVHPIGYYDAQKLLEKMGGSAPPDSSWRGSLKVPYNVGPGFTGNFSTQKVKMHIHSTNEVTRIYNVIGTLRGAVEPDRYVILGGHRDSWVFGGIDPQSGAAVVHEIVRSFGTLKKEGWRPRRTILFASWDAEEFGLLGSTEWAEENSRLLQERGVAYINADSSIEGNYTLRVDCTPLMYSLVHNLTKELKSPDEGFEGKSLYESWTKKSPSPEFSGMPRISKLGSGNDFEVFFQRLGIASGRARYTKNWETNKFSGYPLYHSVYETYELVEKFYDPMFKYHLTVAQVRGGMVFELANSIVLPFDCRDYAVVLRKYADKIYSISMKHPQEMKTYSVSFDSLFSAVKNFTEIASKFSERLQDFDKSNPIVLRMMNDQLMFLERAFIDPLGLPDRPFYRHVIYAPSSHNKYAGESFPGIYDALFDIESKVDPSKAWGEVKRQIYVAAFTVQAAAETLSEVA
structure (smiles),measurement,setting,value
"CC(=O)O[C@@]12CO[C@@H]1C[C@H](O)[C@@]1(C)C(=O)[C@H](O)C3=C(C)[C@@H](OC(=O)[C@H](OC(=O)CCCc4cn(CCCNC(=O)[C@H](Cc5ccccc5)NC(=O)[C@H](Cc5ccccc5)NC(=O)CCC(=O)NCCCCCC(=O)N(CCCC[C@H](NC(=O)N[C@@H](CCC(=O)O)C(=O)O)C(=O)O)Cc5ccccc5)nn4)[C@@H](NC(=O)OC(C)(C)C)c4ccccc4)C[C@@](O)([C@@H](OC(=O)c4ccccc4)[C@H]21)C3(C)C (single isomer, unassigned)",Selectivity ratio,[1],1.5
same,CC50,PC-3 [2],20 nM
same,CC50,CWR22R [3],13 nM
CC(=O)O[C@@]12CO[C@@H]1C[C@H](O)[C@@]1(C)C(=O)[C@H](O)C3=C(C)[C@@H](OC(=O)[C@H](O)[C@@H](NC(=O)OC(C)(C)C)c4ccccc4)C[C@@](O)([C@@H](OC(=O)c4ccccc4)[C@H]21)C3(C)C [DOCETAXEL ANHYDROUS],Activity,[4],Toxic
same,Activity,[5],Toxic
same,Activity,[6],Toxic
same,Activity,[7],Toxic
same,Activity,[8],Toxic
same,Activity,[9],Toxic
same,Activity,PC-3 [10],Active
same,inhibition in vivo at 24.8 mg/kg,DU-145 [11],73.5%
same,Activity,[12],Toxic
same,Activity,CWR22R [13],Active
same,Activity,[14],Toxic
same,LD50,[15],138 mg/kg and 171 µmol/kg
same,Activity,[16],Non-Toxic
same,Activity,[17],Toxic
same,Activity,[18],Toxic
same,Activity,[19],Toxic
same,Activity,[20],Toxic
same,Selectivity ratio,[1],1
same,inhibition in vivo at 12.4 mg/kg,DU-145 [21],47.1%
same,Activity,PC-3 [22],Active
same,Activity,[23],Toxic
same,Activity,[24],Toxic
same,Activity,[25],Non-Toxic
same,Activity,CWR22R [26],88%
same,solubility,[27],3 µg/mL
same,Activity,[28],Toxic
same,Activity,DU-145 [29],84.8%
same,Activity,DU-145 [30],261.3%
same,Activity,[31],Toxic
same,mortality at 192 h,[32],100%
same,Activity,[33],Non-Toxic
same,Activity,[34],Non-Toxic
same,CC50,PC-3 [2],1 nM
same,CC50,CWR22R [3],1 nM
[N-]=[N+]=NCCCNC(=O)[C@H](Cc1ccc(O)cc1)NC(=O)[C@H](Cc1ccccc1)NC(=O)CCC(=O)NCCCCCC(=O)N(CCCC[C@H](NC(=O)N[C@@H](CCC(=O)O)C(=O)O)C(=O)O)Cc1cccc(Cl)c1,IC50,[35],9 nM
CC(=O)O[C@@]12CO[C@@H]1C[C@H](O)[C@@]1(C)C(=O)[C@H](O)C3=C(C)[C@@H](OC(=O)[C@H](OC(=O)CCCc4cn(CCCNC(=O)[C@@H](Cc5ccccc5)NC(=O)[C@@H](Cc5ccccc5)NC(=O)CCC(=O)NCCCCCC(=O)N(CCCC[C@H](NC(=O)N[C@@H](CCC(=O)O)C(=O)O)C(=O)O)Cc5ccc(Cl)c(F)c5)nn4)[C@@H](NC(=O)OC(C)(C)C)c4ccccc4)C[C@@](O)([C@@H](OC(=O)c4ccccc4)[C@H]21)C3(C)C,Selectivity ratio,[1],1.8
same,CC50,PC-3 [2],52 nM
same,CC50,CWR22R [3],29 nM
